Data on 23 compounds can be found in patent US8486931B2, “Substituted oxindole compounds” (Abbott GmbH & Co. KG, priority 2007, dated 2013).

Where only a bound is given, the exact number is not on record here.

This assay deals with T1, human vasopressin V1b receptor (Homo sapiens, UniProt P47901).
T1 construct: expressed in transfected cells; host or cells: CHO-K1 (cell line hV1b-3H2_CHO), membrane preparation
T1 sequence (P47901 1-424): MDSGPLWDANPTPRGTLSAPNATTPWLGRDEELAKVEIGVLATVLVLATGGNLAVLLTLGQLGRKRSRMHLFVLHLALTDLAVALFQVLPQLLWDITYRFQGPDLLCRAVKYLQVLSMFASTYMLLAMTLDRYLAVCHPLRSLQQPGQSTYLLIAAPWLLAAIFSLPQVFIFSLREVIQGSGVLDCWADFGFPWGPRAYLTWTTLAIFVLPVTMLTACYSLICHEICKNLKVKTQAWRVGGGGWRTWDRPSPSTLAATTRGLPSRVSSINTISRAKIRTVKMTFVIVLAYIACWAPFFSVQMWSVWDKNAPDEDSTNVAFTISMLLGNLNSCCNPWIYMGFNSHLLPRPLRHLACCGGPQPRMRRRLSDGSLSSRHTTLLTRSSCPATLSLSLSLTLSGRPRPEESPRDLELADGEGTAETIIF
Kind of assay: Vasopressin V1b receptor binding assay. The conditions noted are these: membranes from CHO-K1 cells with stably expressed human V1b receptors, 1.5 nM 3H-AVP displacement; with more than one stereogenic center: the diastereomer with stronger affinity. An outline of the steps: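 Membranes bearing human V1b receptor incubated 60 min at room temperature in 50 mM Tris, 10 mM MgCl2, 0.1% BSA, pH 7.4, 2% DMSO, triplicate.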
As to `CCOc1ccc(OC)cc1C1(N2CCN(c3ccnc(C)c3)CC2)C(=O)N(S(=O)(=O)c2ccc(OC)cn2)c2ccc(C#N)cc21` (single isomer, unassigned; (+)) [Example 164, (+)-5-Cyano-3-(2-ethoxy-5-methoxy-phenyl)-1-(5-methoxy-pyridine-2-sulfonyl)-3-[4-(2-methyl-pyridin-4-yl)-piperazin-l-yl]-2,3-dihydro-1H-indol-2-one], the Ki (as a rule, a dissociation constant, usually derived from enzyme kinetics or from competition with a known ligand) is < 10 nM.

As to `CCOc1ccc(C)cc1C1(N2CCN(c3ccnc(C)c3)CC2)C(=O)N(S(=O)(=O)c2ccc(OC)cn2)c2ccc(C#N)cc21` (racemic) [Example 180, (±)-5-Cyano-3-(2-ethoxy-5-methyl-phenyl)-1-(5-methoxy-pyridine-2-sulfonyl)-3-[4-(2-methyl-pyridin-4-yl)-piperazin-1-yl]-2,3-dihydro-1H-indol-2-one], the Ki was < 10 nM.

In turn, `COc1ccccc1C1(N2CCN(c3ccncc3)CC2)C(=O)N(S(=O)(=O)c2cccc3cccnc23)c2cc(C)ccc21` (racemic) [Example 39, (±)-3-(2-Methoxyphenyl)-6-methyl-3-(4-pyridin-4-ylpiperazin-1-yl)-1-(quinoline-8-sulfonyl)-1,3-dihydroindol-2-one] displayed a Ki of 10 to 50 nM.

`CCOc1ccc(OC)cc1C1(N2CCN(c3ccncc3)CC2)C(=O)N(S(=O)(=O)c2ccc(OC)c3cccnc23)c2ccc(C#N)cc21` (single isomer, unassigned; (+)) [Example 162, (+)-5-Cyano-3-(2-ethoxy-5-methoxy-phenyl)-1-(5-methoxy-quinoline-8-sulfonyl)-3-(4-pyridin-4-yl-piperazin-1-yl)-2,3-dihydro-1H-indol-2-one] returned a Ki of 10 to 50 nM.

On to `CCOc1ccc(CC)cc1C1(N2CCN(c3ccnc(C)c3)CC2)C(=O)N(S(=O)(=O)c2ccc(OC)cn2)c2ccc(C#N)cc21` (racemic) [Example 165, (±)-5-Cyano-3-(2-ethoxy-5-ethyl-phenyl)-1-(5-methoxy-pyridine-2-sulfonyl)-3-[4-(2-methyl-pyridin-4-yl)-piperazin-1-yl]-2,3-dihydro-1H-indol-2-one], for which the inhibition constant (Ki) is < 10 nM.

With `COc1ccc(OC)c(C2(N3CCN(c4ccncc4)CC3)C(=O)N(S(=O)(=O)c3cccc4cccnc34)c3ccc(OC)cc32)c1` (racemic) [Example 59, (±)-3-(2,5-Dimethoxyphenyl)-5-methoxy-3-(4-pyridin-4-ylpiperazin-1-yl)-1-(quinoline-8-sulfonyl)-1,3-dihydroindol-2-one], the Ki is < 10 nM.

`CCOc1ccccc1C1(N2CCN(c3ccncc3)CC2)C(=O)N(S(=O)(=O)c2cccc3cccnc23)c2ccc(C#N)cc21` (single isomer, unassigned; (+)) [Example 60, (+)-5-Cyano-3-(2-ethoxyphenyl)-3-(4-pyridin-4-ylpiperazin-1-yl)-1-(quinolin-8-sulfonyl)-2,3-dihydro-1H-indol-2-one]: the Ki is < 10 nM.

As to `COc1ccc(OC)c(C2(N3CCN(c4ccncc4)CC3)C(=O)N(S(=O)(=O)c3cccc4c(C)ccnc34)c3ccc(C#N)cc32)c1` (racemic) [Example 50, (±)-5-Cyano-3-(2,5-dimethoxyphenyl)-1-(4-methylquinoline-8-sulfonyl)-3-(4-pyridin-4-yl-piperazin-1-yl)-2,3-dihydro-1H-indol-2-one], the Ki is 10 to 50 nM.

In the case of `CCOc1nc(Cl)ccc1C1(N2CCC(N3CCN(C)CC3)CC2)C(=O)N(S(=O)(=O)c2ccc(OC)cn2)c2ccc(C#N)cc21` (racemic) [Example 170, (±)-5-Cyano-3-(6-chloro-2-ethoxy-pyridin-3-yl)-1-(5-methoxy-pyridine-2-sulfonyl)-3-[4-(4-methyl-piperazin-1-yl)-piperidin-1-yl]-2,3-dihydro-1H-indol-2-one], the inhibitory constant (Ki) is < 10 nM.

As to `CCOc1ccccc1C1(N2CCN(c3ccncc3)CC2)C(=O)N(S(=O)(=O)c2ccc(C)c3cccnc23)c2ccc(C#N)cc21` (racemic) [Example 88, (±)-5-Cyano-3-(2-ethoxyphenyl)-1-(5-methylquinoline-8-sulfonyl)-3-(4-pyridin-4-yl-piperazin-1-yl)-2,3-dihydro-1H-indol-2-one], the Ki is 10 to 50 nM.

For the compound `CCOc1ccc(OC)cc1C1(N2CCN(c3ccncc3)CC2)C(=O)N(S(=O)(=O)c2ccc(OC)cn2)c2ccc(C#N)cc21` (racemic) [Example 82, (±)-5-Cyano-3-(2-ethoxy-5-methoxyphenyl)-1-(5-methoxypyridine-2-sulfonyl)-3-(4-pyridin-4-ylpiperazin-1-yl)-2,3-dihydro-1H-indol-2-one], the Ki was < 10 nM.

Regarding `CCOc1ncccc1C1(N2CCN(c3ccncc3)CC2)C(=O)N(S(=O)(=O)c2cccc3cccnc23)c2ccc(C#N)cc21` (racemic) [Example 5, (±)-5-Cyano-3-(2-ethoxypyridin-3-yl)-3-(4-pyridin-4-ylpiperazin-1-yl)-1-(quinoline-8-sulfonyl)-2,3-dihydro-1H-indol-2-one], the Ki was < 10 nM.

Take `CCOc1cc(OC)ccc1C1(N2CCN(c3ccncc3)CC2)C(=O)N(S(=O)(=O)c2cccc3cccnc23)c2ccc(C#N)cc21` (racemic) [Example 157, (±)-5-Cyano-3-(2-ethoxy-4-methoxy-phenyl)-3-(4-pyridin-4-yl-piperazin-1-yl)-1-(quinoline-8-sulfonyl)-2,3-dihydro-1H-indol-2-one]: the Ki is 10 to 50 nM.

As for `CCOc1ccc(CC)cc1C1(N2CCN(c3ccnc(C(C)C)c3)CC2)C(=O)N(S(=O)(=O)c2ccc(OC)cn2)c2ccc(C#N)cc21` (racemic) [Example 166, (±)-5-Cyano-3-(2-ethoxy-5-ethyl-phenyl)-3-[4-(2-isopropyl-pyridin-4-yl)-piperazin-1-yl]-1-(5-methoxy-pyridine-2-sulfonyl)-2,3-dihydro-1H-indol-2-one], the Ki was < 10 nM.

Turning to `CCOc1ccc(OC)cc1C1(N2CCN(c3ccnc(C)c3)CC2)C(=O)N(S(=O)(=O)c2cccc3cccnc23)c2ccc(C#N)cc21` (racemic) [Example 54, (±)-5-Cyano-3-(2-ethoxy-5-methoxyphenyl)-3-[4-(2-methylpyridin-4-yl)piperazin-1-yl]-1-(quinoline-8-sulfonyl)-2,3-dihydro-1H-indol-2-one], the Ki is < 10 nM.

Compound `CCOc1nc(Cl)ccc1C1(N2CCN(c3ccnc(C)c3)CC2)C(=O)N(S(=O)(=O)c2cccc3cccnc23)c2ccc(C#N)cc21` (racemic) [Example 27, (±)-5-Cyano-3-(6-chloro-2-ethoxypyridin-3-yl)-3-[4-(2-methylpyridin-4-yl)-piperazin-1-yl]-1-(quinoline-8-sulfonyl)-2,3-dihydro-1H-indol-2-one] returned a Ki of 10 to 50 nM.

In the case of `CCOc1nc(Cl)ccc1C1(N2CC3CN(c4ccnc(C)c4)CC3C2)C(=O)N(S(=O)(=O)c2ccc(OC)cn2)c2ccc(C#N)cc21` (racemic) [Example 149, (±)-5-Cyano-3-(6-chloro-2-ethoxy-pyridin-3-yl)-1-(5-methoxy-pyridine-2-sulfonyl)-3-[5-(2-methyl-pyridin-4-yl)-hexahydro-pyrrolo[3,4-c]pyrrol-2-yl]-2,3-dihydro-1H-indol-2-one], the Ki is < 10 nM.

`CCOc1cc(OC)ccc1C1(N2CCC(N3CCNCC3)CC2)C(=O)N(S(=O)(=O)c2ccc(OC)cn2)c2ccc(C#N)cc21` (single isomer, unassigned; (+)) [Example 142, (+)-5-Cyano-3-(2-ethoxy-4-methoxy-phenyl)-1-(5-methoxy-pyridine-2-sulfonyl)-3-(4-piperazin-1-yl-piperidin-1-yl)-2,3-dihydro-1H-indol-2-one]: the Ki was < 10 nM.

The compound `CCOc1ccccc1C1(N2CCN(c3ccnc(C)c3)CC2)C(=O)N(S(=O)(=O)c2cccc3cccnc23)c2ccc(C#N)cc21` (racemic) [Example 44, (±)-5-Cyano-3-(2-ethoxyphenyl)-3-[4-(2-methylpyridin-4-yl)piperazin-1-yl]-1-(quinoline-8-sulfonyl)-2,3-dihydro-1H-indol-2-one] yielded an inhibition constant (Ki) of 10 to 50 nM.

In the case of `CCOc1ccccc1C1(N2CCN(c3ccncc3)CC2)C(=O)N(S(=O)(=O)c2ccc(OC)cn2)c2ccc(C#N)cc21` (racemic) [Example 22, (±)-5-Cyano-3-(2-ethoxyphenyl)-1-(5-methoxypyridine-2-sulfonyl)-3-(4-pyridin-4-yl-piperazin-1-yl)-2,3-dihydro-1H-indol-2-one], the Ki was < 10 nM.

With `COc1ccccc1C1(N2CCN(c3ccncc3)CC2)C(=O)N(S(=O)(=O)c2cccc3cccnc23)c2ccc(C#N)cc21` (racemic) [Example 43, (±)-5-Cyano-3-(2-methoxyphenyl)-3-(4-pyridin-4-ylpiperazin-1-yl)-1-(quinoline-8-sulfonyl)-2,3-dihydro-1H-indol-2-one], the Ki is 10 to 50 nM.

As for “(+)-5-Cyano-3-(2-ethoxy-5-methoxy-phenyl)-1-(5-methoxy-pyridine-2-sulfonyl)-3-[4-(4-methyl-piperazin-1-yl)-piperidin-1-yl]-2,3-dihydro-1H-indol-2-one [Example 158]”, the Ki was < 10 nM.

In the case of `CCOc1ccc(OC)cc1C1(N2CCN(c3ccnc(C)c3)CC2)C(=O)N(S(=O)(=O)c2ccc(OC)cn2)c2ccc(C#N)cc21` (racemic) [Example 35, (±)-5-Cyano-3-(2-ethoxy-5-methoxyphenyl)-1-(5-methoxypyridine-2-sulfonyl)-3-[4-(2-methylpyridin-4-yl)piperazin-1-yl]-2,3-dihydro-1H-indol-2-one], the Ki was < 10 nM.
